Results on 4 compounds are retold here after ChEMBL document CHEMBL1132307, “(2R,1'S,2'R,3'S)-2-(2'-Carboxy-3'-phenylcyclopropyl)glycine (PCCG-13), the first potent and selective competitive antagonist of phospholipase D-coupled metabotropic glutamate receptors: asymmetric synthesis and preliminary biological properties” (J Med Chem, 1999).

SMILES strings stand for the structures.

Common to all, as to assay type: functional, tissue-based
Common to all, as to conditions: Hippocampus

Assay [1] in a line: Agonistic activity against phospholipase D (PLD) was determined in adult rat hippocampal slices.
Assay [2] in a line: Antagonistic activity against phospholipase D (PLD) was determined in adult rat hippocampal slices.
The nature of assay [3]: Antagonistic activity against phospholipase C (PLC) was determined in adult rat hippocampal slices.

A word on the EC50: it is the concentration at which the effect is half-maximal. A low value points to an effect from little substance. In general, IC50 refers to the midpoint of a concentration-inhibition curve. The low end stands for higher potency, the high end for lower potency. In assay [1], `CC(N)(C(=O)O)c1ccc(C(=O)O)cc1` (stereo unspecified) gave a concentration for a half-maximal effect (EC50) of 110 µM. The midpoint of inhibition in assay [2], the IC50, lay at 530 µM. In assay [1], `N[C@@]1(C(=O)O)CC[C@@H](C(=O)O)C1` yielded a 50% effective concentration (EC50) of 30 µM. Take `N[C@H](C(=O)O)c1cc(O)cc(O)c1`: the concentration for half-maximal inhibition (IC50) in assay [2] was determined as 70 µM.

Take `NC(C(=O)O)[C@@H]1[C@H](C(=O)O)[C@H]1c1ccccc1` (stereo partly specified): the values for the IC50 in assay [3] and in assay [2] were > 300 µM and 0.025 µM, respectively.
